In PubChem BioAssay AID1259407 (Chemical Carcinogenesis Research Information System (CCRIS), 2018):
Activity calls are given as the source filed them. The rule behind the calls is not given here. Where a SMILES comes first, the peptide text is derived from it.

Test system: CCRIS mutagenicity, Ames/micronucleus/aberration tests
Assay: CCRIS mutagenicity studies
[1] = Test System: AMES SALMONELLA TYPHIMURIUM, Strain/Indicator: TA98, Metabolic Activation: HAMSTER, LIVER, S-9, AROCLOR 1254 (10%), Method: PREINCUBATION
[2] = Test System: AMES SALMONELLA TYPHIMURIUM, Strain/Indicator: TA98, Metabolic Activation: NONE, Method: PREINCUBATION
[3] = Test System: AMES SALMONELLA TYPHIMURIUM, Strain/Indicator: TA98, Metabolic Activation: RAT, LIVER, S-9, AROCLOR 1254 (10%), Method: PREINCUBATION
[4] = Test System: AMES SALMONELLA TYPHIMURIUM, Strain/Indicator: TA100, Metabolic Activation: HAMSTER, LIVER, S-9, AROCLOR 1254 (10%), Method: PREINCUBATION
[5] = Test System: AMES SALMONELLA TYPHIMURIUM, Strain/Indicator: TA100, Metabolic Activation: NONE, Method: PREINCUBATION
[6] = Test System: AMES SALMONELLA TYPHIMURIUM, Strain/Indicator: TA1535, Metabolic Activation: HAMSTER, LIVER, S-9, AROCLOR 1254 (10%), Method: PREINCUBATION
[7] = Test System: AMES SALMONELLA TYPHIMURIUM, Strain/Indicator: TA1535, Metabolic Activation: NONE, Method: PREINCUBATION
[8] = Test System: AMES SALMONELLA TYPHIMURIUM, Strain/Indicator: TA100, Metabolic Activation: RAT, LIVER, S-9, AROCLOR 1254 (10%), Method: PREINCUBATION
[9] = Test System: AMES SALMONELLA TYPHIMURIUM, Strain/Indicator: TA1535, Metabolic Activation: RAT, LIVER, S-9, AROCLOR 1254 (10%), Method: PREINCUBATION
[10] = Test System: AMES SALMONELLA TYPHIMURIUM, Strain/Indicator: TA1537, Metabolic Activation: HAMSTER, LIVER, S-9, AROCLOR 1254 (10%), Method: PREINCUBATION
[11] = Test System: AMES SALMONELLA TYPHIMURIUM, Strain/Indicator: TA1537, Metabolic Activation: NONE, Method: PREINCUBATION
[12] = Test System: AMES SALMONELLA TYPHIMURIUM, Strain/Indicator: TA1537, Metabolic Activation: RAT, LIVER, S-9, AROCLOR 1254 (10%), Method: PREINCUBATION
[13] = Test System: AMES SALMONELLA TYPHIMURIUM, Strain/Indicator: TA98, Metabolic Activation: NONE, Method: STANDARD PLATE
[14] = Test System: AMES SALMONELLA TYPHIMURIUM, Strain/Indicator: TA98, Metabolic Activation: RAT, LIVER, S-9, AROCLOR 1254, Method: STANDARD PLATE
[15] = Test System: AMES SALMONELLA TYPHIMURIUM, Strain/Indicator: TA100, Metabolic Activation: NONE, Method: STANDARD PLATE
[16] = Test System: AMES SALMONELLA TYPHIMURIUM, Strain/Indicator: TA100, Metabolic Activation: RAT, LIVER, S-9, AROCLOR 1254, Method: STANDARD PLATE

Row | SMILES | mutagenic call [1] | mutagenic call [2] | mutagenic call [3] | mutagenic call [4] | mutagenic call [5] | mutagenic call [6] | mutagenic call [7] | mutagenic call [8] | mutagenic call [9] | mutagenic call [10] | mutagenic call [11] | mutagenic call [12] | mutagenic call [13] | mutagenic call [14] | mutagenic call [15] | mutagenic call [16] | other results
1 | N#CCC#N | inactive; negative | inactive; negative | inactive; negative | inactive; negative | inactive; negative | inactive; negative | inactive; negative |  |  |  |  |  |  |  |  |  | mutagenic call (Test System: AMES SALMONELLA TYPHIMURIUM, Strain/Indicator: TA97, Metabolic Activation: HAMSTER, LIVER, S-9, AROCLOR 1254 (10%), Method: PREINCUBATION): inactive; negative; mutagenic call (Test System: AMES SALMONELLA TYPHIMURIUM, Strain/Indicator: TA97, Metabolic Activation: HAMSTER, LIVER, S-9, AROCLOR 1254 (30%), Method: PREINCUBATION): inactive; negative; mutagenic call (Test System: AMES SALMONELLA TYPHIMURIUM, Strain/Indicator: TA97, Metabolic Activation: NONE, Method: PREINCUBATION): inactive; negative; mutagenic call (Test System: AMES SALMONELLA TYPHIMURIUM, Strain/Indicator: TA97, Metabolic Activation: RAT, LIVER, S-9, AROCLOR 1254 (10%), Method: PREINCUBATION): inactive; negative; mutagenic call (Test System: AMES SALMONELLA TYPHIMURIUM, Strain/Indicator: TA97, Metabolic Activation: RAT, LIVER, S-9, AROCLOR 1254 (30%), Method: PREINCUBATION): inactive; negative; mutagenic call (Test System: AMES SALMONELLA TYPHIMURIUM, Strain/Indicator: TA98, Metabolic Activation: HAMSTER, LIVER, S-9, AROCLOR 1254 (30%), Method: PREINCUBATION): inactive; negative; mutagenic call (Test System: AMES SALMONELLA TYPHIMURIUM, Strain/Indicator: TA98, Metabolic Activation: RAT, LIVER, S-9, AROCLOR 1254 (30%), Method: PREINCUBATION): inactive; negative; mutagenic call (Test System: AMES SALMONELLA TYPHIMURIUM, Strain/Indicator: TA100, Metabolic Activation: HAMSTER, LIVER, S-9, AROCLOR 1254 (30%), Method: PREINCUBATION): inactive; negative; mutagenic call (Test System: AMES SALMONELLA TYPHIMURIUM, Strain/Indicator: TA100, Metabolic Activation: RAT, LIVER, S-9, AROCLOR 1254 (10 OR 30%), Method: PREINCUBATION): inactive; negative; mutagenic call (Test System: AMES SALMONELLA TYPHIMURIUM, Strain/Indicator: TA1535, Metabolic Activation: HAMSTER, LIVER, S-9, AROCLOR 1254 (30%), Method: PREINCUBATION): inactive; negative; mutagenic call (Test System: AMES SALMONELLA TYPHIMURIUM, Strain/Indicator: TA1535, Metabolic Activation: RAT, LIVER, S-9, AROCLOR 1254 (10 OR 30%), Method: PREINCUBATION): inactive; negative
2 | COc1ccc(CN(CCN(C)C)c2ncccn2)cc1 | inactive; negative | inactive; negative | inactive; negative | inactive; negative | inactive; negative | inactive; negative | inactive; negative | inactive; negative | inactive; negative | inactive; negative | inactive; negative | inactive; negative |  |  |  |  | 
3 | CCN1CCOCC1 | inactive; negative | inactive; negative | inactive; negative | inactive; negative | inactive; negative | active; positive | inactive; negative | inactive; negative | active; positive | inactive; negative | inactive; negative | inactive; negative |  |  |  |  | mutagenic call (Test System: AMES SALMONELLA TYPHIMURIUM, Strain/Indicator: TA1535, Metabolic Activation: HAMSTER, LIVER, S-9, AROCLOR 1254 (5 OR 30%), Method: PREINCUBATION): active; positive; mutagenic call (Test System: AMES SALMONELLA TYPHIMURIUM, Strain/Indicator: TA1535, Metabolic Activation: RAT, LIVER, S-9, AROCLOR 1254 (5 OR 30%), Method: PREINCUBATION): active; positive
4 | NCCCC[C@H](NC(=O)[C@H](Cc1c[nH]c2ccccc12)NC(=O)[C@@H](N)CCCCN)C(=O)O (H-Lys-Trp-Lys-OH) |  |  |  |  |  |  |  |  |  |  |  |  | inactive; negative | inactive; negative | inactive; negative | inactive; negative | mutagenic call (Test System: AMES SALMONELLA TYPHIMURIUM, Strain/Indicator: TA1535, Metabolic Activation: NONE, Method: STANDARD PLATE): inactive; negative; mutagenic call (Test System: AMES SALMONELLA TYPHIMURIUM, Strain/Indicator: TA1535, Metabolic Activation: RAT, LIVER, S-9, AROCLOR 1254, Method: STANDARD PLATE): inactive; negative; mutagenic call (Test System: AMES SALMONELLA TYPHIMURIUM, Strain/Indicator: TA1537, Metabolic Activation: NONE, Method: STANDARD PLATE): inactive; negative; mutagenic call (Test System: AMES SALMONELLA TYPHIMURIUM, Strain/Indicator: TA1537, Metabolic Activation: RAT, LIVER, S-9, AROCLOR 1254, Method: STANDARD PLATE): inactive; negative
5 | COc1nc(N)nc2c1ncn2[C@H]1C[C@H](O)[C@@H](COP(=O)(O)OP(=O)(O)OP(=O)(O)O)O1 |  |  |  |  |  |  |  |  |  |  |  |  |  |  |  |  | mutagenic call (Test System: CHINESE HAMSTER OVARY, Strain/Indicator: CHO-K1 (HGPRT), Metabolic Activation: NONE): inactive; negative
6 | Cc1ccccc1OCC(O)CNCCOc1ccc(C(N)=O)cc1 (configuration not stated) |  |  |  |  |  |  |  |  |  |  |  |  | inactive; negative | inactive; negative | inactive; negative | inactive; negative | 
